Where two headings read alike, the source gives them in different places.
How the values were obtained:
human FXR (NR1H4) = biological target: T1, human FXR (NR1H4) (Homo sapiens, UniProt Q96RI1); test: Human FXR (NR1H4) agonist assessment, FXRE-NanoLuc reporter in HEK293T cells; assay type: cell-based; conditions: for EC50: read-out: EC50
T1 sequence (Q96RI1 1-476 isoform Q96RI1-1): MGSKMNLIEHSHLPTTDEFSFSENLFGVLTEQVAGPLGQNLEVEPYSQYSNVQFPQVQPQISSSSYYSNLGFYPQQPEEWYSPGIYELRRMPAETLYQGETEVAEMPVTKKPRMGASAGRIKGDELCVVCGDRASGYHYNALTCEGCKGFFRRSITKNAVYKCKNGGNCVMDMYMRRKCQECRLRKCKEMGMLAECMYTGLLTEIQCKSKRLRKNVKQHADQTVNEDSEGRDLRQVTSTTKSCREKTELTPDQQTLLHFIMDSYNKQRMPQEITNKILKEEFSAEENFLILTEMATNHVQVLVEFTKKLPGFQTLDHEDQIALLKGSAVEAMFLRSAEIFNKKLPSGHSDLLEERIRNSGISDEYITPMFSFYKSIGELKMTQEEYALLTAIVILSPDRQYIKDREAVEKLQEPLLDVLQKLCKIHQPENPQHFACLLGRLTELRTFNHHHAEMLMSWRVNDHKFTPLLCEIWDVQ
Method in brief: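 HEK293T cells stably expressing human FXR with an FXRE-NanoLuc reporter were treated with compounds for 24 hr at 37 °C, with 0.01% DMSO as negative control. Medium was read for luminescence after 5 min with coelenterazine. EC50 was fitted by sigmoid to concentration-response data.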

MRGPRX4 = MRGPRX4 (Homo sapiens, UniProt Q96LA9); test: MRGPRX4 activation, Fluo-8 Ca2+ FLIPR assay in HEK293T cells stably expressing MRGPRX4; assay type: cell-based; parameters: key to MRGPRX4 activation, Average / MRGPRX4 activation, Ave.: fluorescence change dF/F0; conditions: for EC50: MRGPRX4 activation, Ca2+ fluorescence, no activation in tested range reported as III, read-out: Activity (EC50 μM)
Sequence of MRGPRX4 (Q96LA9 whole entry): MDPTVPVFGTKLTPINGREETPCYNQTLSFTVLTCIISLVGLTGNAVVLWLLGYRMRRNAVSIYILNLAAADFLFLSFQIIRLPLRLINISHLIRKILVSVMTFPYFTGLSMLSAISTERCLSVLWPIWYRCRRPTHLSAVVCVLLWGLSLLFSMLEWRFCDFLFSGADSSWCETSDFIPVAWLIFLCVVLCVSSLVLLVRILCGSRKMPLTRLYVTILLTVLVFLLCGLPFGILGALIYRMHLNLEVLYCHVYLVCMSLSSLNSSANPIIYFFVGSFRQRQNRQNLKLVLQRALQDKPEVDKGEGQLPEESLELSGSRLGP
Method in brief: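 Cells seeded overnight to >95% confluence, loaded 40-60 min at room temperature with 2 μM Fluo-8 AM, then kept in HHBS. Baseline read 30 s, compound added, signal followed 150 s more.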

[1] = FXR activation, HEK293T FXRE-NanoLuc reporter, 24 hr

Compound	Efficacy (maximum measured induction of NanoLuc, normalized to CDCA set as 100%) (human FXR (NR1H4); [1])	EC50 (human FXR (NR1H4); [1])	MRGPRX4 activation, Average (MRGPRX4; E3-9, Conc. (Log[M]) −4.0)	MRGPRX4 activation, Average (MRGPRX4; E3-9, Conc. (Log[M]) −4.5)	MRGPRX4 activation, Average (MRGPRX4; E3-9, Conc. (Log[M]) −5.0)	MRGPRX4 activation, Average (MRGPRX4; E3-9, Conc. (Log[M]) −5.4)	MRGPRX4 activation, Average (MRGPRX4; E3-9, Conc. (Log[M]) −5.9)	MRGPRX4 activation, Average (MRGPRX4; E3-9, Conc. (Log[M]) −6.4)	MRGPRX4 activation, Average (MRGPRX4; E3-9, Conc. (Log[M]) −6.9)	MRGPRX4 activation, Average (MRGPRX4; E3-9, Conc. (Log[M]) −7.3)	MRGPRX4 activation, Average (MRGPRX4; E3-9, Conc. (Log[M]) −7.8)	MRGPRX4 activation, Average (MRGPRX4; E3-9, Conc. (Log[M]) −8.3)	EC50 (MRGPRX4)	MRGPRX4 activation, fluorescence change (dF/F0), Average (MRGPRX4; Conc. (Log[M]) −5)	MRGPRX4 activation, fluorescence change (dF/F0), Average (MRGPRX4; Conc. (Log[M]) −4)	MRGPRX4 activation, fluorescence change (dF/F0), Average (MRGPRX4; Conc. (Log[M]) −4.5)	MRGPRX4 activation, fluorescence change (dF/F0), Average (MRGPRX4; Conc. (Log[M]) −5.5)	MRGPRX4 activation, fluorescence change (dF/F0), Average (MRGPRX4; Conc. (Log[M]) −6)	MRGPRX4 activation, fluorescence change (dF/F0), Average (MRGPRX4; Conc. (Log[M]) −7)	further results
CC[C@H]1[C@@H](O)[C@@H]2[C@H](CC[C@]3(C)[C@@H]([C@H](C)CCNC(=O)C(=O)NS(=O)(=O)c4cc(F)ccc4F)CC[C@@H]23)[C@@]2(C)CCCC[C@@H]12 [8-5]	C (100%<efficacy <=300%)	< 1 µM	0.030	0.016	0.018	0.018	0.018	0.016	0.020	0.016	0.011	0.011	> 100 µM	–	–	–	–	–	–	–
CC[C@H]1[C@@H](O)[C@@H]2[C@H](CC[C@]3(C)[C@@H]([C@H](C)CCNS(=O)(=O)C[C@]45CC[C@H](CC4=O)C5(C)C)CC[C@@H]23)[C@@]2(C)CCCC[C@@H]12 [6-3]	C (100%<efficacy <=300%)	1 to 10 µM	0.016	0.008	0.020	0.016	0.018	0.018	0.011	0.018	0.020	0.013	> 100 µM	–	–	–	–	–	–	–
CC[C@H]1[C@@H](O)[C@@H]2[C@H](CC[C@]3(C)[C@@H]([C@H](C)CCNC(=S)NS(=O)(=O)c4ccc(C(C)(C)CF)cc4)CC[C@@H]23)[C@@]2(C)CCC(F)(F)C[C@@H]12 [11-4]	–	< 1 µM	0.013	0.013	0.020	0.015	0.015	0.013	0.010	0.015	0.015	0.022	> 100 µM	–	–	–	–	–	–	Efficacy (maximum measured induction of NanoLuc, normalized to CDCA set as 100%) (human FXR (NR1H4)): B (key: A: efficacy >400%; B: 300%<efficacy <=400%; C: 100%<efficacy <=300%; D: efficacy <=100%)
CC[C@H]1[C@@H](O)[C@@H]2[C@H](CC[C@]3(C)[C@@H]([C@H](C)CCCOS(=O)(=O)O)CC[C@@H]23)[C@@]2(C)CCCC[C@@H]12 [2-6]	B (300%<efficacy <=400%)	1 to 10 µM	–	–	–	–	–	–	–	–	–	–	50 to 100 µM	−0.047	–	–	–	–	–	–
CC[C@H]1[C@@H](O)[C@@H]2[C@H](CC[C@]3(C)[C@@H]([C@H](C)CCNC(=O)C(=O)NS(=O)(=O)c4cccs4)CC[C@@H]23)[C@@]2(C)CCCC[C@@H]12 [8-2]	–	< 1 µM	0.020	0.018	0.018	0.016	0.018	0.011	0.018	0.008	0.011	0.006	> 100 µM	–	–	–	–	–	–	Efficacy (maximum measured induction of NanoLuc, normalized to CDCA set as 100%) (human FXR (NR1H4)): B (key: A: efficacy >400%; B: 300%<efficacy <=400%; C: 100%<efficacy <=300%; D: efficacy <=100%)
C[C@H](CCCO)[C@H]1CC[C@H]2[C@@H]3CC[C@@H]4CCCC[C@]4(C)[C@H]3CC[C@]12C [compound 77]	–	1 to 10 µM	–	–	–	–	–	–	–	–	–	–	> 100 µM	−0.029	0.067	0.014	−0.023	−0.017	−0.009	Efficacy (maximum measured induction of NanoLuc, normalized to CDCA set as 100%) (human FXR (NR1H4)): B (key: A: efficacy >400%; B: 300%<efficacy <=400%; C: 100%<efficacy <=300%; D: efficacy <=100%); MRGPRX4 activation, fluorescence change (dF/F0), Average (MRGPRX4; Conc. (Log[M]) −8): −0.014; MRGPRX4 activation, fluorescence change (dF/F0), Average (MRGPRX4; Conc. (Log[M]) −9): −0.012
C[C@H](CC/C=C/C(=O)O)[C@H]1CC[C@H]2[C@@H]3CC[C@@H]4C[C@H](O)CC[C@]4(C)[C@H]3CC[C@]12C [1-7]	C (100%<efficacy <=300%)	1 to 10 µM	–	–	–	–	–	–	–	–	–	–	< 50 µM	−0.048	0.083	0.011	−0.037	−0.044	−0.045	MRGPRX4 activation, fluorescence change (dF/F0), Average (MRGPRX4; Conc. (Log[M]) −8): −0.040; MRGPRX4 activation, fluorescence change (dF/F0), Average (MRGPRX4; Conc. (Log[M]) −9): −0.034
CC[C@H]1[C@@H](O)[C@@H]2[C@H](CC[C@]3(C)[C@@H]([C@H](C)CC(=O)NS(=O)(=O)C(C)(C)C)CC[C@@H]23)[C@@]2(C)CCCC[C@@H]12 [4-3]	B (300%<efficacy <=400%)	1 to 10 µM	–	–	–	–	–	–	–	–	–	–	> 100 µM	–	–	–	–	–	–	–
CC[C@H]1[C@@H](O)[C@@H]2[C@H](CC[C@]3(C)[C@@H]([C@H](C)CCNC(=O)NS(=O)(=O)c4ccc(C(C)(C)CO)cc4)CC[C@@H]23)[C@@]2(C)CCCC[C@@H]12 [5-2]	A (efficacy >400%)	< 1 µM	–	–	–	–	–	–	–	–	–	–	> 100 µM	0.023	0.087	0.030	0.027	0.023	0.020	–
CC[C@H]1[C@@H](O)[C@@H]2[C@H](CC[C@]3(C)[C@@H]([C@H](C)COC(=O)NS(=O)(=O)c4ccc(N5CCCCC5)nc4)CC[C@@H]23)[C@@]2(C)CCCC[C@@H]12 [18-3]	A (efficacy >400%)	< 1 µM	0.519	0.027	0.021	0.018	0.018	–	–	–	–	–	> 100 µM	–	–	–	–	–	–	Activation (%) (MRGPRX4; second E3-8-1, 4.6 nM, n = 1): 3.17%; Activation (%) (MRGPRX4; second E3-8-1, 4.6 nM, n = 2): 2.86%; Activation (%) (MRGPRX4; second E3-8-1, 14 nM, n = 1): 2.86%; Activation (%) (MRGPRX4; second E3-8-1, 14 nM, n = 2): 2.55%; Activation (%) (MRGPRX4; second E3-8-1, 41 nM, n = 1): 2.86%; Activation (%) (MRGPRX4; second E3-8-1, 41 nM, n = 2): 2.55%; Activation (%) (MRGPRX4; second E3-8-1, 123 nM, n = 1): 2.86%; Activation (%) (MRGPRX4; second E3-8-1, 123 nM, n = 2): 2.86%; Activation (%) (MRGPRX4; second E3-8-1, 370 nM, n = 1): 2.24%; Activation (%) (MRGPRX4; second E3-8-1, 370 nM, n = 2): 3.48%; Activation (%) (MRGPRX4; second E3-8-1, 1111 nM, n = 1): 2.55%; Activation (%) (MRGPRX4; second E3-8-1, 1111 nM, n = 2): 2.24%; Activation (%) (MRGPRX4; second E3-8-1, 3333 nM, n = 1): 3.17%; Activation (%) (MRGPRX4; second E3-8-1, 3333 nM, n = 2): 2.24%; Activation (%) (MRGPRX4; second E3-8-1, 10000 nM, n = 1): 2.24%; Activation (%) (MRGPRX4; second E3-8-1, 10000 nM, n = 2): 2.86%; Activation (%) (MRGPRX4; second E3-8-1, 30000 nM, n = 1): 1.63%; Activation (%) (MRGPRX4; second E3-8-1, 30000 nM, n = 2): 0.08%
CC[C@H]1[C@@H](O)[C@@H]2[C@H](CC[C@]3(C)[C@@H]([C@H](C)CCNC(=O)NS(=O)(=O)c4cccc(Cl)c4)CC[C@@H]23)[C@@]2(C)CCCC[C@@H]12 [5-7]	B (300%<efficacy <=400%)	< 1 µM	–	–	–	–	–	–	–	–	–	–	> 100 µM	0.030	0.070	0.027	0.020	0.020	0.017	–

Source: patent US20260116910A1, “POLYCYCLIC COMPOUNDS AND METHODS THEREOF” (HEPAITECH (BEIJING) BIOPHARMA TECHNOLOGY CO., LTD., priority 2021, published 2026)
